Results on 20 compounds are retold here after PubChem BioAssay (NCI).

Broadly, the GI50 is the concentration at which growth is held to half of that of the control. A word on the TGI: it is the concentration at which net growth stops.

Where “and” joins values, the source holds several entries; their conditions need not be identical. Equal values may be shown once.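 Protocol summary: plate cells (96-well), add compound at 5 concentrations, incubate 48 h, interpolate endpoints linearly. Abbreviation: GI50, concentration required for 50% inhibition of growth. TGI is the concentration that stops growth completely.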

In one assay the test system is HS 578T breast. Description: DTP human tumour cell line panel, 48 h.
Regarding `CCCCCCCCCCCCCCCCCCOC[C@H](COP(=O)(O)O[C@H]1[C@H](O)[C@@H](O)[C@H](O)C[C@H]1O)OC`, the GI50 is > 100 µM and 17.9 µM; the TGI was > 100 µM and 34.8 µM.

Turning to `Nc1n[nH]c2cccc(C#Cc3cccc(NC(=O)c4cccc(C(F)(F)F)c4)c3)c12`, the GI50 is 1.96 µM and the TGI came to 6.09 µM.

Regarding `COCCOC(=O)C1=C(O)c2ccccc2S(=O)(=O)N1C`, the concentration for total growth inhibition (TGI) is greater than 100 µM.

`CNC(=O)OCc1nc(SSC(C)(C)C)n(C)c1COC(=O)NC` returned a TGI of 7.9 µM.

Take `CC(C)C(O)(C(C)C)C(C)C`: the concentration for total growth inhibition (TGI) is greater than 100 µM.

Take `CC1(C)N=C(N)N=C(N)N1c1ccc(CCC(=O)Nc2ccc(S(=O)(=O)F)cc2)c(Cl)c1`: the GI50 was greater than 84.7 µM and the TGI is greater than 100 µM.

As for `COC(=O)c1ccc2[nH]c(O)c(C(=Nc3ccc(N(C)C(=O)CN4CCN(C)CC4)cc3)c3ccc4c(c3)OCO4)c2c1`, the GI50 was 0.144 µM and the concentration for total growth inhibition (TGI) is 2.56 µM.

For the compound `COc1ccc2c(c1)OC1=C(C(=O)OC1)C2c1cc(OC)c2c(c1)OCCO2` (centres undefined), the 50% growth inhibitory concentration (GI50) was 0.0361 µM and the TGI is greater than 100 µM.

Regarding `N[C@H](C(=O)O)[C@@H]1CC(Cl)=NO1`, the GI50 is 7.42 µM and the TGI is greater than 1000 µM.

In the case of `Oc1ccc2ccccc2c1N=Nc1cccc2ccccc12`, the total growth inhibition concentration (TGI) was > 100 µM and 77.7 µM.

On to `COc1ccc2c(c1)NC1=C(C(=O)OC1)C2c1cc(OC)c(OC)c(OC)c1` (centres undefined), for which the 50% growth inhibitory concentration (GI50) was less than 0.01 µM and the TGI was greater than 100 µM.

On to `CCOc1cc(C(C)(C)C)ccc1C1=N[C@H](c2ccc(Cl)cc2)[C@H](c2ccc(Cl)cc2)N1C(=O)N1CCN(CC#Cc2cccc3c2CN([C@@H]2CCC(=O)NC2=O)C3=O)CC1`, for which the 50% growth inhibitory concentration (GI50) is 0.346 µM and the total growth inhibition concentration (TGI) was greater than 100 µM.

`NCCCNCCS` displayed a TGI greater than 100 µM.

As for `O=C1C(=O)c2ccccc2C(O)=C1C(C1=C(O)c2ccccc2C(=O)C1=O)c1ccc(Cl)cc1`, the TGI is 66.4 µM.

As for `Nc1ncnc2c1ncn2C1C=C(CO)C(O)C1O` (centres undefined), the concentration for total growth inhibition (TGI) was greater than 100 µM.

`O=C(O)CSCCc1ccccc1`: the TGI is greater than 100 µM.

In turn, `O=NNc1ccc2ccccc2n1` yielded a TGI greater than 100 µM.

Consider `COc1ccc(C(C#N)NC23CC4CC(CC(C4)C2)C3)cc1` (centres undefined), for which the TGI is greater than 100 µM.

Turning to `CC(C)(C)c1cc([N+](=O)[O-])cc([N+](=O)[O-])c1O`, the TGI is greater than 10 µM.

`Cc1cc(N(CC(C)Br)CC(C)Br)ccc1N=Nc1ccccc1C(=O)O` (centres undefined) registered a TGI of 49.2 µM.

The test system of a further assay is NCI/ADR-RES ovarian. The assay can be described thus: DTP human tumour cell line panel, 48 h.
As to `CCCCCCCCCCCCCCCCCCOC[C@H](COP(=O)(O)O[C@H]1[C@H](O)[C@@H](O)[C@H](O)C[C@H]1O)OC`, the GI50 is > 100 µM and 18.3 µM; the TGI is > 100 µM and 33.5 µM.

For the compound `Nc1n[nH]c2cccc(C#Cc3cccc(NC(=O)c4cccc(C(F)(F)F)c4)c3)c12`, the GI50 is 3.91 µM and the TGI was 23.2 µM.

Consider `COCCOC(=O)C1=C(O)c2ccccc2S(=O)(=O)N1C`, for which the total growth inhibition concentration (TGI) is greater than 100 µM.

As for `CNC(=O)OCc1nc(SSC(C)(C)C)n(C)c1COC(=O)NC`, the TGI is 20.3 µM.

The compound `CC(C)C(O)(C(C)C)C(C)C` came in with a total growth inhibition concentration (TGI) greater than 100 µM.

`CC1(C)N=C(N)N=C(N)N1c1ccc(CCC(=O)Nc2ccc(S(=O)(=O)F)cc2)c(Cl)c1`: the GI50 was greater than 100 µM and the TGI is greater than 100 µM.

`COC(=O)c1ccc2[nH]c(O)c(C(=Nc3ccc(N(C)C(=O)CN4CCN(C)CC4)cc3)c3ccc4c(c3)OCO4)c2c1`: the GI50 was 10.7 µM and the total growth inhibition concentration (TGI) is 34 µM.

Take `COc1ccc2c(c1)OC1=C(C(=O)OC1)C2c1cc(OC)c2c(c1)OCCO2` (centres undefined): the 50% growth inhibitory concentration (GI50) was 0.0279 µM and the TGI was 0.0915 µM.

On to `N[C@H](C(=O)O)[C@@H]1CC(Cl)=NO1`, for which the GI50 was 37.7 µM and the total growth inhibition concentration (TGI) is 530 µM.

For the compound `Oc1ccc2ccccc2c1N=Nc1cccc2ccccc12`, the concentration for total growth inhibition (TGI) was greater than 100 µM.

As for `COc1ccc2c(c1)NC1=C(C(=O)OC1)C2c1cc(OC)c(OC)c(OC)c1` (centres undefined), the 50% growth inhibitory concentration (GI50) is less than 0.01 µM and the concentration for total growth inhibition (TGI) stood at 0.0277 µM.

Regarding `CCOc1cc(C(C)(C)C)ccc1C1=N[C@H](c2ccc(Cl)cc2)[C@H](c2ccc(Cl)cc2)N1C(=O)N1CCN(CC#Cc2cccc3c2CN([C@@H]2CCC(=O)NC2=O)C3=O)CC1`, the GI50 was 1.79 µM and the total growth inhibition concentration (TGI) is greater than 100 µM.

In the case of `NCCCNCCS`, the TGI was greater than 100 µM.

Regarding `O=C1C(=O)c2ccccc2C(O)=C1C(C1=C(O)c2ccccc2C(=O)C1=O)c1ccc(Cl)cc1`, the total growth inhibition concentration (TGI) is greater than 77.5 µM.

In turn, `Nc1ncnc2c1ncn2C1C=C(CO)C(O)C1O` (centres undefined) displayed a TGI of 74.8 µM.

`O=C(O)CSCCc1ccccc1` gave a TGI greater than 100 µM.

For `O=NNc1ccc2ccccc2n1`, the TGI was greater than 100 µM.

Regarding `COc1ccc(C(C#N)NC23CC4CC(CC(C4)C2)C3)cc1` (centres undefined), the concentration for total growth inhibition (TGI) is greater than 100 µM.

`CC(C)(C)c1cc([N+](=O)[O-])cc([N+](=O)[O-])c1O` showed a TGI greater than 10 µM.

`Cc1cc(N(CC(C)Br)CC(C)Br)ccc1N=Nc1ccccc1C(=O)O` (centres undefined) had a TGI greater than 100 µM.

In the next assay the test system is UACC-257 melanoma. Description: DTP human tumour cell line panel, 48 h.
Consider `CCCCCCCCCCCCCCCCCCOC[C@H](COP(=O)(O)O[C@H]1[C@H](O)[C@@H](O)[C@H](O)C[C@H]1O)OC`, for which the GI50 was > 100 µM and 17 µM; the total growth inhibition concentration (TGI) was > 100 µM and 31.5 µM.

As to `Nc1n[nH]c2cccc(C#Cc3cccc(NC(=O)c4cccc(C(F)(F)F)c4)c3)c12`, the GI50 was 4.3 µM and the concentration for total growth inhibition (TGI) came to 15.8 µM.

Turning to `COCCOC(=O)C1=C(O)c2ccccc2S(=O)(=O)N1C`, the concentration for total growth inhibition (TGI) was greater than 100 µM.

`CNC(=O)OCc1nc(SSC(C)(C)C)n(C)c1COC(=O)NC`: the concentration for total growth inhibition (TGI) amounted to 7.64 µM.

Turning to `CC(C)C(O)(C(C)C)C(C)C`, the total growth inhibition concentration (TGI) was greater than 100 µM.

As to `CC1(C)N=C(N)N=C(N)N1c1ccc(CCC(=O)Nc2ccc(S(=O)(=O)F)cc2)c(Cl)c1`, the GI50 was greater than 42.5 µM and the concentration for total growth inhibition (TGI) is greater than 100 µM.

On to `COC(=O)c1ccc2[nH]c(O)c(C(=Nc3ccc(N(C)C(=O)CN4CCN(C)CC4)cc3)c3ccc4c(c3)OCO4)c2c1`, for which the GI50 was 2.27 µM and the TGI stood at 6.77 µM.

Turning to `COc1ccc2c(c1)OC1=C(C(=O)OC1)C2c1cc(OC)c2c(c1)OCCO2` (centres undefined), the concentration for 50% growth inhibition (GI50) is 0.0458 µM and the TGI was greater than 100 µM.
